The test system of one test is MV4-11 cells. Put plainly: Inhibition of MV4-11 cell proliferation (CellTiterGlo, 72 hours). It is filed as cell-based. The conditions noted are these: Homo sapiens; 72 hours growth; uncertainty ±20%. As to the method:
Inhibition Of MV4-11 and Baf3 Cell Proliferation
To assess the cellular potency of the FLT3 inhibitors of Formula I′, FLT3 specific growth inhibition was measured in the leukemic cell line MV4-11 (ATCC Number: CRL-9591). […] MV4-11 cells cannot grow and survive without active FLT3ITD.
To measure proliferation inhibition by test compounds, the luciferase based CellTiterGlo reagent (Promega), which quantifies total cell number based on total cellular ATP concentration, was used. Cells are plated at 10,000 cells per well in 100 ul of in RPMI media containing penn/strep, 10% FBS and 1 ng/ml GM-CSF or 1 ng/ml IL-3 for MV4-11 and Baf3 cells respectively.
Compound dilutions or 0.1% DMSO (vehicle control) are added to cells and the cells are allowed to grow for 72 hours at standard cell growth conditions (37° C., 5% CO2). For activity measurements in MV4-11 cells grown in 50% plasma, cells were plated at 10,000 cells per well in a 1:1 mixture of growth media and human plasma (final volume of 100 μL). To measure total cell growth an equal volume of CellTiterGlo reagent was added to each well, according to the manufacturer's instructions, and luminescence was quantified. Total cell growth was quantified as the difference in luminescent counts (relative light units, RLU) of cell number at Day 0 compared to total cell number at Day 3 (72 hours of growth and/or compound treatment). One hundred percent inhibition of growth is defined as an RLU equivalent to the Day 0 reading. Zero percent inhibition was defined as the RLU signal for the DMSO vehicle control at Day 3 of growth. All data points are an average of triplicate samples. […] Inhibition and IC50 data analysis was done with GraphPad Prism using a non-linear regression fit with a multiparamater, sigmoidal dose-response (variable slope) equation.
MV4-11 cells express the FLT3 internal tandem duplication mutation, and thus are entirely dependent upon FLT3 activity for growth. […] In contrast, the Baf3 cell proliferation is driven by the cytokine IL-3 and thus are used as a non-specific toxicity control for test compounds.
On the technique in general: In ATP-based viability assays light output follows the ATP content of the culture.

In test [1] the target is T1, isolated kinase domain of the human FLT3 receptor (a.a. 571-993) (Homo sapiens, UniProt P36888).
T1 construct: isolated kinase domain of the human FLT3 receptor (a.a. 571-993)
T1 sequence (P36888 571-993): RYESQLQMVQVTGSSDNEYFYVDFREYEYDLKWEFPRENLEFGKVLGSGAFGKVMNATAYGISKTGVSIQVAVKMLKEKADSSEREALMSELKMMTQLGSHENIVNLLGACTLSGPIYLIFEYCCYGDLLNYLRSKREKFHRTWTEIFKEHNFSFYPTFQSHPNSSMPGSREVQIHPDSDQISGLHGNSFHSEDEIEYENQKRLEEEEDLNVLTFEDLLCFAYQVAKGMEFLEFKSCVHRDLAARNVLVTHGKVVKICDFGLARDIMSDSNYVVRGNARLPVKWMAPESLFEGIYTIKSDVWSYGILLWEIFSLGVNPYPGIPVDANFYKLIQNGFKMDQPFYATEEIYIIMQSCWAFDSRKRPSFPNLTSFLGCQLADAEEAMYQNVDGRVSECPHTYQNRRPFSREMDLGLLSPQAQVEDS
As to the kind of experiment: FLT3 Fluorescence Polarization Kinase Assay. It is filed as biochemical. The conditions noted are these: 10 nM FLT3 571-993, 150 uM ATP; uncertainty ±10%. The method, then:
FLT3 Fluorescence Polarization Kinase Assay
To determine the activity of the FLT3 inhibitors of Formula I′ in an in vitro kinase assay, inhibition of the isolated kinase domain of the human FLT3 receptor (a.a. 571-993) was performed using the following fluorescence polarization (FP) protocol. The FLT3 FP assay utilizes the fluorescein-labeled phosphopeptide and the anti-phosphotyrosine antibody included in the Panvera Phospho-Tyrosine Kinase Kit (Green) supplied by Invitrogen. When FLT3 phosphorylates polyGlu4Tyr, the fluorescein-labeled phosphopeptide is displaced from the anti-phosphotyrosine antibody by the phosphorylated poly Glu4Tyr, thus decreasing the FP value. The FLT3 kinase reaction is incubated at room temperature for 30 minutes under the following conditions: 10 nM FLT3 571-993, 20 ug/mL poly Glu4Tyr, 150 uM ATP, 5 mM MgCl2, 1% compound in DMSO. The kinase reaction is stopped with the addition of EDTA. The fluorescein-labeled phosphopeptide and the anti-phosphotyrosine antibody are added and incubated for 30 minutes at room temperature.
All data points are an average of triplicate samples. Inhibition and IC50 data analysis was done with GraphPad Prism using a non-linear regression fit with a multiparamater, sigmoidal dose-response (variable slope) equation.
Background: Fluorescence polarisation rises when a labelled molecule tumbles more slowly, as on binding a larger partner.

On to `CC(C)Oc1ccc(NC(=O)OC2CCN(c3ncnc(N)c3/C=N/OCCN3CCOCC3)CC2)cc1` [Number 3, (4-Isopropoxy-phenyl)-carbamic acid 1-{6-amino-5-[(2-morpholin-4-yl-ethoxyimino)-methyl]-pyrimidin-4-yl}-piperidin-4-yl ester], for which the figures for the IC50 (with MV4-11 cells; in test [1]) were 2800 nM and 820 nM, respectively.
In the case of `CO/N=C/c1c(N)ncnc1N1CCC(NC(=O)Cc2ccc(C(C)C)cc2)CC1` [Number 16, N-{1-[6-Amino-5-(methoxyimino-methyl)-pyrimidin-4-yl]-piperidin-4-yl}-2-(4-isopropyl-phenyl)-acetamide], the IC50 – broadly, the concentration at which inhibition is half-maximal – with MV4-11 cells is 1400 nM; in test [1] it was 1800 nM.
In the case of `CO/N=C/c1c(N)ncnc1N1CCC(NC(=O)Nc2ccc(N3CCCC3)cc2)CC1` [Number 24, 1-{1-[6-Amino-5-(methoxyimino-methyl)-pyrimidin-4-yl]-piperidin-4-yl}-3-(4-pyrrolidin-1-yl-phenyl)-urea], the results for the IC50 (with MV4-11 cells; in test [1]) were 1100 nM and 198 nM, respectively.
With `CC(C)c1ccc(NC(=O)NC2CCN(c3ncnc(N)c3/C=N/OCCN)C2)cc1` (stereo not shown) [Number 27, 1-(1-{6-Amino-5-[(2-amino-ethoxyimino)-methyl]-pyrimidin-4-yl}-pyrrolidin-3-yl)-3-(4-isopropyl-phenyl)-urea], the IC50 in the test on MV4-11 cells is 1700 nM; in test [1], greater than 10000 nM.
For `CO/N=C/c1c(N)ncnc1N1CCC(NC(=O)Nc2ccc(C(C)C)cc2)C1` (stereo not shown) [Number 30, 1-{1-[6-Amino-5-(methoxyimino-methyl)-pyrimidin-4-yl]-pyrrolidin-3-yl}-3-(4-isopropyl-phenyl)-urea], in that order: 209 nM and 4700 nM.

The record behind these values is US20060281700A1, “SYNERGISTIC MODULATION OF FLT3 KINASE USING AMINOPYRIMIDINES KINASE MODULATORS” (priority 2005, published 2006).
